From patent US8604217B2, “Compound, a process for its preparation, a pharmaceutical composition, use of a compound, a method for modulating or regulating serine/threonine kinases and a serine/threonine kinases modulating agent” (Selvita S.A., priority 2009, dated 2013)

Experiments:
Experiment in all cases: KinaseProfiler kinase panel
Format in all cases: biochemical
HIPK2(h) = HIPK2(h) (Homo sapiens (Human), UniProt Q9H2X6)
PKG1β(h) = PKG1β(h) (Homo sapiens (Human), UniProt Q13976)
EGFR(T790M, L858R)(h) = EGFR(T790M, L858R)(h) (Homo sapiens (Human), UniProt P00533, L858R/T790M)
PASK(h) = PASK(h) (Homo sapiens (Human), UniProt Q96RG2)
cKit(V560G)(h) = cKit(V560G)(h) (Homo sapiens (Human), UniProt P10721, V560G)
Axl(h) = Axl(h) (Homo sapiens (Human), UniProt P30530)
MKK6(h) = MKK6(h) (Homo sapiens (Human), UniProt P52564)
MSK1(h) = MSK1(h) (Homo sapiens (Human), UniProt O75582)
p70S6K(h) = p70S6K(h) (Homo sapiens (Human), UniProt P23443)
GSK3α(h) = GSK3α(h) (Homo sapiens (Human), UniProt P49840)
Met(D1246N)(h) = Met(D1246N)(h) (Homo sapiens (Human), UniProt P08581, D1246N)
IGF-1R(h) = IGF-1R(h) (Homo sapiens (Human), UniProt P08069)
CHK2(R145W)(h) = CHK2(R145W)(h) (Homo sapiens (Human), UniProt O96017, R145W)
Aurora-B(h) = Aurora-B(h) (Homo sapiens (Human), UniProt Q96GD4)
CHK2(I157T)(h) = CHK2(I157T)(h) (Homo sapiens (Human), UniProt O96017, I157T)
AMPKα1(h) = AMPKα1(h) (Homo sapiens (Human), UniProt Q13131)
LKB1(h) = LKB1(h) (Homo sapiens (Human), UniProt Q15831)
EphB1(h) = EphB1(h) (Homo sapiens (Human), UniProt P54762)
MLK1(h) = MLK1(h) (Homo sapiens (Human), UniProt P80192)
PhKγ2(h) = PhKγ2(h) (Homo sapiens (Human), UniProt P15735)
Rsk4(h) = Rsk4(h) (Homo sapiens (Human), UniProt Q9UK32)
CSK(h) = CSK(h) (Homo sapiens (Human), UniProt P41240)
FGFR2(h) = FGFR2(h) (Homo sapiens (Human), UniProt P21802)
PRAK(h) = PRAK(h) (Homo sapiens (Human), UniProt Q8IW41)
Fms(Y969C)(h) = Fms(Y969C)(h) (Homo sapiens (Human), UniProt P07333, Y969C)
PAK2(h) = PAK2(h) (Homo sapiens (Human), UniProt Q13177)
TSSK1(h) = TSSK1(h) (Homo sapiens (Human), UniProt Q9BXA7)
ACK1(h) = ACK1(h) (Homo sapiens (Human), UniProt Q07912)
Blk(m) = Blk(m) (Mus musculus (Mouse), UniProt P16277)
FGFR1(h) = FGFR1(h) (Homo sapiens (Human), UniProt P11362)
MAPKAP-K2(h) = MAPKAP-K2(h) (Homo sapiens (Human), UniProt P49137)
Tie2(R849W)(h) = Tie2(R849W)(h) (Homo sapiens (Human), UniProt Q02763, R849W)
BTK(R28H)(h) = BTK(R28H)(h) (Homo sapiens (Human), UniProt Q06187, R28H)
PKCβI(h) = PKCβI(h) (Homo sapiens (Human), UniProt P05771)
TBK1(h) = TBK1(h) (Homo sapiens (Human), UniProt Q9UHD2)
TLK2(h) = TLK2(h) (Homo sapiens (Human), UniProt Q86UE8)
PDK1(h) = PDK1(h) (Homo sapiens (Human), UniProt O15530)
EphB3(h) = EphB3(h) (Homo sapiens (Human), UniProt P54753)
JAK2(h) = JAK2(h) (Homo sapiens (Human), UniProt O60674)
Sequence of JAK2(h) (O60674 whole entry): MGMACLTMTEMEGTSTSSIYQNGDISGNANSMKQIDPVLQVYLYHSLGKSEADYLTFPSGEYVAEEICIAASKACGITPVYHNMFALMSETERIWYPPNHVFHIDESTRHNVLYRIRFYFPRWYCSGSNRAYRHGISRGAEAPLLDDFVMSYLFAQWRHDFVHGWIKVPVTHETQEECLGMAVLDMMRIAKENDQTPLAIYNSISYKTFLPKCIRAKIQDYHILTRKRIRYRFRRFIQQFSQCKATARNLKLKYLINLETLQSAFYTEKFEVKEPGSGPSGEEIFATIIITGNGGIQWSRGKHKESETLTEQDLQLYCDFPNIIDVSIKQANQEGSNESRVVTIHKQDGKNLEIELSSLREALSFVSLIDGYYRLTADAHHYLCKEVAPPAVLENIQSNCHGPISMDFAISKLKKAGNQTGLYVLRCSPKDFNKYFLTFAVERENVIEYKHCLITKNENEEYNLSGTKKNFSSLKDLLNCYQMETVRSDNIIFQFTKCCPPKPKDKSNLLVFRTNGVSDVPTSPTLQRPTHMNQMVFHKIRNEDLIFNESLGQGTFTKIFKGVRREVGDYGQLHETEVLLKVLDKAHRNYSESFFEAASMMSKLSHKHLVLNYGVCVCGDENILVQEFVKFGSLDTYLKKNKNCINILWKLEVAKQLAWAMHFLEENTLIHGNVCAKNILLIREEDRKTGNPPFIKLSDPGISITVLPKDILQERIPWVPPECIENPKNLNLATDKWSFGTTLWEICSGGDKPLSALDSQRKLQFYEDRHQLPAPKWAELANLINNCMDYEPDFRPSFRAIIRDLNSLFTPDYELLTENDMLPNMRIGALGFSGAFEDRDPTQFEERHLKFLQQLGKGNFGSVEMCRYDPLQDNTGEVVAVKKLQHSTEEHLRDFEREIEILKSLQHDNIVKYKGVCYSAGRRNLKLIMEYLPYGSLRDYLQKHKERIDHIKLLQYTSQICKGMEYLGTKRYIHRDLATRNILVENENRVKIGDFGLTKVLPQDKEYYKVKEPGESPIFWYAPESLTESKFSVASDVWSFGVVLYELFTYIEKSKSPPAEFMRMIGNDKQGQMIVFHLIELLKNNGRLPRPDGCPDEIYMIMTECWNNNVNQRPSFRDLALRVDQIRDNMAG

Sequence of Blk(m) (P16277 whole entry): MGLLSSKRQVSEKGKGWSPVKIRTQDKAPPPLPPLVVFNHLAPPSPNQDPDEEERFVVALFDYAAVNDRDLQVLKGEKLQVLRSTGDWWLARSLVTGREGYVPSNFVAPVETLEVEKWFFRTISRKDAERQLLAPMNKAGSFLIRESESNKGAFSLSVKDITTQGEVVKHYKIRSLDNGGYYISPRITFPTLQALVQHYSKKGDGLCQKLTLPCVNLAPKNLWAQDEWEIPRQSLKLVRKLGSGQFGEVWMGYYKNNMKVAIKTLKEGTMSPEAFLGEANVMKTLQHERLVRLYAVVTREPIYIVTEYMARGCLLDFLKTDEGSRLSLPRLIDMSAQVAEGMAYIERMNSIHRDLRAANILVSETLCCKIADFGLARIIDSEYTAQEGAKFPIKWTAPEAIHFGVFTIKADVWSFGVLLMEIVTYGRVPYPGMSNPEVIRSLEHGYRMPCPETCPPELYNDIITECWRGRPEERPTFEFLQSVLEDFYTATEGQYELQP
Sequence of EphB1(h) (P54762 18-984): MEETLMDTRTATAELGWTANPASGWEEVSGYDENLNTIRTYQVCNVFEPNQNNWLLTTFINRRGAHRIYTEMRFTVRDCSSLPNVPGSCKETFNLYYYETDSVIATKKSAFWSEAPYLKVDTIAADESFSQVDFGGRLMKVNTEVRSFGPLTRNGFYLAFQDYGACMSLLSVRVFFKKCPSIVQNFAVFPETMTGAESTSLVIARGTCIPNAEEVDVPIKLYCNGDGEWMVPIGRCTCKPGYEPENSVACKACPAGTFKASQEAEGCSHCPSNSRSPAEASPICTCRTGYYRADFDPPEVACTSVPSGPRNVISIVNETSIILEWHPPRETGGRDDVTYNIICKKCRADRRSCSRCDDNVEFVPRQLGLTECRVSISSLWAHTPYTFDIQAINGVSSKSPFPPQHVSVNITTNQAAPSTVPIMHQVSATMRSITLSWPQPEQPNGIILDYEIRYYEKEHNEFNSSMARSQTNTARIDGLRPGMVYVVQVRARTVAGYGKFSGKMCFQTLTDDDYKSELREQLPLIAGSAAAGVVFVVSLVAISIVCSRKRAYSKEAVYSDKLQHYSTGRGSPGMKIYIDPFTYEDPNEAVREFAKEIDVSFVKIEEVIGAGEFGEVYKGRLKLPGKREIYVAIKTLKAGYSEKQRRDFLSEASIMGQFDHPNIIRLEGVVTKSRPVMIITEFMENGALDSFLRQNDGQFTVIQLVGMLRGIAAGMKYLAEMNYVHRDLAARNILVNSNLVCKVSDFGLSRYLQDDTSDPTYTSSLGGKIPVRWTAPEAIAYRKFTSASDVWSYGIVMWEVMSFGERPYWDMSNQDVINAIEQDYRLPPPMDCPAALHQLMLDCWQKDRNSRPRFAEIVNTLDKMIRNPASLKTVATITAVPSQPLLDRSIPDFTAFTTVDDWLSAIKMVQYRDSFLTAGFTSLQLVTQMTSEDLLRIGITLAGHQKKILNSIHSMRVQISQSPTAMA
Sequence of CHK2(I157T)(h) (O96017 whole entry I157T): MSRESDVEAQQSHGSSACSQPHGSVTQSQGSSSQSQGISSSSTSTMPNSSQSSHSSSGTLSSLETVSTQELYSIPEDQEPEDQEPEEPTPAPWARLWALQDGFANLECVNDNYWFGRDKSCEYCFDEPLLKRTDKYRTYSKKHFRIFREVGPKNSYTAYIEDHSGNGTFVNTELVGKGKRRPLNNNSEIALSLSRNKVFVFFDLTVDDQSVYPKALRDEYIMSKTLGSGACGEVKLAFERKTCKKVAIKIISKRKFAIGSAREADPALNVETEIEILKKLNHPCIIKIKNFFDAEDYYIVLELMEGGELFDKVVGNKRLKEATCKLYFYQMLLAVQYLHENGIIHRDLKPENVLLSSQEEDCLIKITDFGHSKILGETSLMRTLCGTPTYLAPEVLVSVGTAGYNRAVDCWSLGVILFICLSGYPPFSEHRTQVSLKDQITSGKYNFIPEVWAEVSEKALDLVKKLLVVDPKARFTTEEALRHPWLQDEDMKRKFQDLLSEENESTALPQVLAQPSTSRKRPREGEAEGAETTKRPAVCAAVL
Sequence of BTK(R28H)(h) (Q06187 whole entry R28H): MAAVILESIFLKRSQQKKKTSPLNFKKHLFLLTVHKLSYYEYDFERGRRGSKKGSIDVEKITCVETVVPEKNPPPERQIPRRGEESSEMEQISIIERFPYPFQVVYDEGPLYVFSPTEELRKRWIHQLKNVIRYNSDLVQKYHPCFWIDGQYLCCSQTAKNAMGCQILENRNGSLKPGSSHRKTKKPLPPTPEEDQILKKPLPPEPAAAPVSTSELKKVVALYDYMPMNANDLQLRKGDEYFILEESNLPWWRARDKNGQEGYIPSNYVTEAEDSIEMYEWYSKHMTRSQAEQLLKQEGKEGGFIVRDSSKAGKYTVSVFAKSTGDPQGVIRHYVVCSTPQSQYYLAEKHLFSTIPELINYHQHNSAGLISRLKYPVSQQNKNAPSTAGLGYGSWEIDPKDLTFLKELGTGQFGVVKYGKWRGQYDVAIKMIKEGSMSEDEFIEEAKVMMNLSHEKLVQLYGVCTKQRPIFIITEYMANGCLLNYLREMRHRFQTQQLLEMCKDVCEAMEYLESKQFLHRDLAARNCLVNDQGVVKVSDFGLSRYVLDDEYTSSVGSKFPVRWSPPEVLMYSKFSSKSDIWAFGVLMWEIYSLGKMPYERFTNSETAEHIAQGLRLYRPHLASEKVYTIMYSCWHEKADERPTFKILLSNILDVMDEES
Sequence of PKG1β(h) (Q13976 other isoform, or with tags, fused parts or gaps): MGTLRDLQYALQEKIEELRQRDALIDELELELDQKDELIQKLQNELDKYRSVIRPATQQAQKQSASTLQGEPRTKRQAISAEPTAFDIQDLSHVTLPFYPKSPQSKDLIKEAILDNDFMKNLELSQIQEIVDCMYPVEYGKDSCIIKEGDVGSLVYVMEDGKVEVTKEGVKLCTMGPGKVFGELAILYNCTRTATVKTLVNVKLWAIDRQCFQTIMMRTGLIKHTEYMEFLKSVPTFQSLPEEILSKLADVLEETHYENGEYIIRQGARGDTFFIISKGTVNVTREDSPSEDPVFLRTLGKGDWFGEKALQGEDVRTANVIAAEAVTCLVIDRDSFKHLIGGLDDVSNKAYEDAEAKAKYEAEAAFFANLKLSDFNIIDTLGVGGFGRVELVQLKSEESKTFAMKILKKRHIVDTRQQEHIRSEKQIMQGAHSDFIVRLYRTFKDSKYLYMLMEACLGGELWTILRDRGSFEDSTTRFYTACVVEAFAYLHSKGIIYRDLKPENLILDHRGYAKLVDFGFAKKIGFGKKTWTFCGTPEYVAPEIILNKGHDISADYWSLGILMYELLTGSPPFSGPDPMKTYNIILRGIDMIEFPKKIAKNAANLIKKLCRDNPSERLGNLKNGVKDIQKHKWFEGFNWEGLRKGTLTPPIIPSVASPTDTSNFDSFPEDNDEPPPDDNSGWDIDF
Sequence of GSK3α(h) (P49840 whole entry): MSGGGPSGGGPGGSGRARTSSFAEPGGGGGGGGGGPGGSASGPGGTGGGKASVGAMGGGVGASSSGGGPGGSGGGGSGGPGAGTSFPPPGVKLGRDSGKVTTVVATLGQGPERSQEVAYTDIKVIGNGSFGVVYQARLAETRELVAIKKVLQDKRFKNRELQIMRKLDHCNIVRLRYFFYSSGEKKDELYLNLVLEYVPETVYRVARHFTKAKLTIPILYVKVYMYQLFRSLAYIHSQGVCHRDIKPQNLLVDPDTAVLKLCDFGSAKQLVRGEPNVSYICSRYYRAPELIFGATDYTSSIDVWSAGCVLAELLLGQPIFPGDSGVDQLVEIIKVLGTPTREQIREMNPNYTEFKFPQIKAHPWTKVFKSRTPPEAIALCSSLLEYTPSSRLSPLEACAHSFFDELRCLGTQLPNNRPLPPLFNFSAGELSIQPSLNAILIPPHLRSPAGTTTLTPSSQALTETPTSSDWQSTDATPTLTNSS
Sequence of CHK2(R145W)(h) (O96017 whole entry R145W): as the sequence (O96017 whole entry I157T) above, with R145W, T157I counted along it

- remaining activity at 1 µM (HIPK2(h)): 1%
- remaining activity at 1 µM (PKG1β(h)): 5%
- remaining activity at 1 µM (EGFR(T790M, L858R)(h)): 11%
- remaining activity at 1 µM (PASK(h)): 28%
- remaining activity at 1 µM (cKit(V560G)(h)): 35%
- remaining activity at 1 µM (Axl(h)): 36%
- remaining activity at 1 µM (MKK6(h)): 43%
- remaining activity at 1 µM (MSK1(h)): 54%
- remaining activity at 1 µM (p70S6K(h)): 56%
- remaining activity at 1 µM (GSK3α(h)): 60%
- remaining activity at 1 µM (Met(D1246N)(h)): 74%
- remaining activity at 1 µM (IGF-1R(h)): 75%
- remaining activity at 1 µM (CHK2(R145W)(h)): 76%
- remaining activity at 1 µM (Aurora-B(h)): 80%
- remaining activity at 1 µM (CHK2(I157T)(h)): 80%
- remaining activity at 1 µM (AMPKα1(h)): 82%
- remaining activity at 1 µM (LKB1(h)): 86%
- remaining activity at 1 µM (EphB1(h)): 87%
- remaining activity at 1 µM (MLK1(h)): 87%
- remaining activity at 1 µM (PhKγ2(h)): 88%
- remaining activity at 1 µM (Rsk4(h)): 89%
- remaining activity at 1 µM (CSK(h)): 91%
- remaining activity at 1 µM (FGFR2(h)): 91%
- remaining activity at 1 µM (PRAK(h)): 91%
- remaining activity at 1 µM (Fms(Y969C)(h)): 92%
- remaining activity at 1 µM (PAK2(h)): 95%
- remaining activity at 1 µM (TSSK1(h)): 96%
- remaining activity at 1 µM (ACK1(h)): 97%
- remaining activity at 1 µM (Blk(m)): 97%
- remaining activity at 1 µM (FGFR1(h)): 99%
- remaining activity at 1 µM (MAPKAP-K2(h)): 101%
- remaining activity at 1 µM (Tie2(R849W)(h)): 101%
- remaining activity at 1 µM (BTK(R28H)(h)): 102%
- remaining activity at 1 µM (PKCβI(h)): 102%
- remaining activity at 1 µM (TBK1(h)): 104%
- remaining activity at 1 µM (TLK2(h)): 104%
- remaining activity at 1 µM (PDK1(h)): 109%
- remaining activity at 1 µM (EphB3(h)): 121%
- remaining activity at 1 µM (JAK2(h)): 121%
SMILES: CCn1c(N2CCNCC2)nc2c(Br)c(Br)c(Br)c(Br)c21 [Compound 416, 4,5,6,7-tetrabromo-1-ethyl-2-(piperazin-1-yl)-1H-benzo[d]imidazole]
